Where a SMILES comes first, the peptide text is derived from it.

The target in the test is T1, Interleukin-23 receptor (Homo sapiens, UniProt Q5VWK5).
T1 sequence (Q5VWK5 whole entry): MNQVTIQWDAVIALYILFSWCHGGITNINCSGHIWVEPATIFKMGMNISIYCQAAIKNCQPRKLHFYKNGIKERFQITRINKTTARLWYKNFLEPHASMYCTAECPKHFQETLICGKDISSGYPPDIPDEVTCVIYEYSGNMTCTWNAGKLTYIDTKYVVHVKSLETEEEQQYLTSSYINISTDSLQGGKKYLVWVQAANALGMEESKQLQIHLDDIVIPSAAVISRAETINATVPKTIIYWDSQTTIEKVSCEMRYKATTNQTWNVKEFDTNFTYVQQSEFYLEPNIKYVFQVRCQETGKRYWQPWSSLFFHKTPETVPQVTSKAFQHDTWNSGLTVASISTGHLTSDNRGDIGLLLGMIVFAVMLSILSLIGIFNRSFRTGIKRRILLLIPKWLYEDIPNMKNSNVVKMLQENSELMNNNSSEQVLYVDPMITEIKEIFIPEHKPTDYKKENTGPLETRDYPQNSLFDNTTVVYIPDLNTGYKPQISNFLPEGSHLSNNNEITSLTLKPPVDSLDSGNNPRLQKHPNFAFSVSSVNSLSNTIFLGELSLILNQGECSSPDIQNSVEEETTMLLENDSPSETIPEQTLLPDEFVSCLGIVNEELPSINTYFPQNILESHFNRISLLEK
As to the kind of experiment: Inhibition of interleukin-23 binding to human interleukin-23 receptor incubated for 2 hrs by competitive binding ELISA. (An ELISA detects its analyte on a solid surface through an enzyme-linked reagent.)
In general, IC50 refers to the concentration that inhibits the measured activity by half. A higher IC50 goes with weaker potency. `CC(=O)N[C@@H](CS)C(=O)N[C@@H](CCC(N)=O)C(=O)N[C@H](C(=O)N[C@@H](Cc1c[nH]c2ccccc12)C(=O)N[C@@H](CCC(N)=O)C(=O)N[C@@H](CS)C(=O)N[C@@H](Cc1ccc(O)cc1)C(=O)N[C@@H](Cc1c[nH]c2ccccc12)C(=O)N[C@H](CC(C)C)C(=O)N[C@@H](CCC(=O)O)C(=O)N[C@@H](CC(N)=O)C(=O)NCC(N)=O)[C@@H](C)O` registered an IC50 of 0.319 µM.

With `CC(=O)N[C@@H](CS)C(=O)N[C@@H](C)C(=O)N[C@H](C(=O)N[C@@H](Cc1c[nH]c2ccccc12)C(=O)N[C@@H](CCC(N)=O)C(=O)N[C@@H](CS)C(=O)N[C@@H](Cc1ccc(O)cc1)C(=O)N[C@@H](Cc1c[nH]c2ccccc12)C(=O)N[C@@H](Cc1cnc[nH]1)C(=O)N[C@@H](CCC(=O)O)C(=O)N[C@@H](Cc1ccc(O)cc1)C(=O)NCC(N)=O)[C@@H](C)O` (Ac-CATWQCYWHEYG-NH2), the IC50 is less than 0.5 µM.

With `CC(=O)N[C@@H](CS)C(=O)N[C@H](C(=O)N[C@H](C(=O)N[C@@H](Cc1c[nH]c2ccccc12)C(=O)N[C@@H](CCC(=O)O)C(=O)N[C@@H](CS)C(=O)N[C@@H](Cc1ccc(O)cc1)C(=O)N[C@@H](Cc1c[nH]c2ccccc12)C(=O)N[C@@H](Cc1cnc[nH]1)C(=O)N[C@@H](CCC(=O)O)C(=O)N[C@@H](Cc1ccccc1)C(=O)NCC(N)=O)[C@@H](C)O)[C@@H](C)O` (Ac-CTTWECYWHEFG-NH2), the half-maximal inhibitory concentration (IC50) was less than 0.5 µM.

As for `CC(=O)N[C@@H](CS)C(=O)N[C@@H](CCC(N)=O)C(=O)N[C@H](C(=O)N[C@@H](Cc1c[nH]c2ccccc12)C(=O)N[C@@H](CCC(N)=O)C(=O)N[C@@H](CS)C(=O)N[C@@H](CCc1ccc(O)cc1)C(=O)N[C@@H](Cc1c[nH]c2ccccc12)C(=O)N[C@@H](CCC(C)C)C(=O)N[C@@H](CCC(=O)O)C(=O)N[C@@H](CC(N)=O)C(=O)NCC(N)=O)[C@@H](C)O`, the IC50 came to 6 µM.

For `CC(=O)N[C@@H](CS)C(=O)N[C@@H](CCCCNC(=O)COCC(=O)NCCCC[C@H](NC(=O)[C@H](CS)NC(C)=O)C(=O)N[C@@H](CC(=O)O)C(=O)N[C@@H](Cc1c[nH]c2ccccc12)C(=O)N[C@H](C(=O)N[C@@H](CS)C(=O)N[C@@H](Cc1ccc(O)cc1)C(=O)N[C@@H](Cc1c[nH]c2ccccc12)C(=O)N[C@@H](Cc1cnc[nH]1)C(=O)N[C@H](C(=O)N[C@@H](Cc1ccccc1)C(=O)NCC(=O)O)[C@@H](C)O)C(C)C)C(=O)N[C@@H](CC(=O)O)C(=O)N[C@@H](Cc1c[nH]c2ccccc12)C(=O)N[C@H](C(=O)N[C@@H](CS)C(=O)N[C@@H](Cc1ccc(O)cc1)C(=O)N[C@@H](Cc1c[nH]c2ccccc12)C(=O)N[C@@H](Cc1cnc[nH]1)C(=O)N[C@H](C(=O)N[C@@H](Cc1ccccc1)C(=O)NCC(=O)O)[C@@H](C)O)C(C)C`, the IC50 was more than 10 µM.

The compound `CC(=O)N[C@@H](CS)C(=O)N[C@@H](C)C(=O)N[C@@H](CC(=O)O)C(=O)N[C@@H](Cc1c[nH]c2ccccc12)C(=O)N[C@H](C(=O)N[C@@H](CS)C(=O)N[C@@H](Cc1ccc(O)cc1)C(=O)N[C@@H](Cc1c[nH]c2ccccc12)C(=O)N[C@@H](Cc1cnc[nH]1)C(=O)N[C@H](C(=O)N[C@@H](Cc1ccccc1)C(=O)NCC(=O)NCCOCCC(=O)N[C@@H](CCCCN)C(=O)O)[C@@H](C)O)C(C)C` came in with a concentration for half-maximal inhibition (IC50) of less than 0.5 µM.

`CC(=O)N[C@@H](CS)C(=O)N[C@@H](C)C(=O)N[C@@H](CC(=O)O)C(=O)N[C@@H](Cc1c[nH]c2ccccc12)C(=O)N[C@H](C(=O)N[C@@H](CS)C(=O)N[C@@H](Cc1ccc(O)cc1)C(=O)N[C@@H](Cc1c[nH]c2ccccc12)C(=O)N[C@@H](Cc1cnc[nH]1)C(=O)N[C@H](C(=O)N[C@@H](Cc1ccccc1)C(=O)NCC(=O)NCCC(=O)N[C@H](CCCCNC(=O)COCC(=O)NCCCC[C@@H](NC(=O)CCNC(=O)CNC(=O)[C@H](Cc1ccccc1)NC(=O)[C@@H](NC(=O)[C@H](Cc1cnc[nH]1)NC(=O)[C@H](Cc1c[nH]c2ccccc12)NC(=O)[C@H](Cc1ccc(O)cc1)NC(=O)[C@H](CS)NC(=O)[C@@H](NC(=O)[C@H](Cc1c[nH]c2ccccc12)NC(=O)[C@H](CC(=O)O)NC(=O)[C@H](C)NC(=O)[C@H](CS)NC(C)=O)C(C)C)[C@@H](C)O)C(=O)O)C(=O)O)[C@@H](C)O)C(C)C` registered an IC50 of 0.025 to 0.1 µM.

Regarding `CC(=O)NC1CC/C=C\CCC(C(=O)N[C@@H](Cc2ccc(O)cc2)C(=O)N[C@@H](Cc2c[nH]c3ccccc23)C(=O)N[C@@H](CCCNC(=N)N)C(=O)N[C@@H](CCCCN)C(=O)N[C@@H](Cc2ccccc2)C(=O)NCC(=O)NCCOCC(=O)N[C@H](CCCCN)C(N)=O)NC(=O)[C@H](CCC(N)=O)NC(=O)[C@H](Cc2c[nH]c3ccccc23)NC(=O)[C@H]([C@@H](C)O)NC(=O)[C@H](CCCNC(=N)N)NC1=O` (some centres undefined), the IC50 fell in the range of 0.1 to 1 µM.

With `CC(=O)N[C@@H](CS)C(=O)N[C@@H](CCCNC(=N)N)C(=O)N[C@@H](CC(=O)O)C(=O)N[C@@H](Cc1c[nH]c2ccccc12)C(=O)N[C@@H](CCC(N)=O)C(=O)N[C@@H](CS)C(=O)N[C@@H](Cc1ccc(O)cc1)C(=O)N[C@@H](Cc1c[nH]c2ccccc12)C(=O)N[C@@H](Cc1cnc[nH]1)C(=O)N[C@@H](CCCCN)C(=O)N[C@@H](Cc1ccccc1)C(=O)NCC(=O)NCCOCCC(=O)N[C@H](CCCCN)C(=O)O`, the IC50 was less than 0.5 µM.

`N=C(N)NCCC[C@H](NC(=O)[C@H](Cc1c[nH]c2ccccc12)NC(=O)[C@H](Cc1ccc(O)cc1)NC(=O)[C@@H]1CSCCC(=O)N[C@@H](CCC(N)=O)C(=O)N[C@@H](CC(=O)O)C(=O)N[C@@H](Cc2c[nH]c3ccccc23)C(=O)N[C@@H](CCC(N)=O)C(=O)N1)C(=O)N[C@@H](CCC(=O)O)C(=O)N[C@@H](CC(N)=O)C(=O)NCC(=O)NCCOCC(=O)N[C@H](CCCCN)C(N)=O` yielded an IC50 of 30 µM.

As to `CC(=O)N[C@@H](C)C(=O)N[C@H](C(=O)N[C@@H](CC(=O)O)C(=O)N[C@@H](Cc1c[nH]c2ccccc12)C(=O)N[C@H](C(=O)N[C@H](C(=O)N[C@@H](Cc1ccc(O)cc1)C(=O)N[C@@H](Cc1c[nH]c2ccccc12)C(=O)N[C@@H](CCCN)C(=O)N[C@@H](CN)C(=O)N[C@@H](Cc1ccccc1)C(=O)NCC(=O)NCCOCC(=O)N[C@H](CCCCN)C(N)=O)C(C)(C)S)C(C)C)C(C)(C)S`, the IC50 was more than 30 µM.

On to `CC(=O)N[C@@H](CS)C(=O)N[C@@H](CCCCN)C(=O)N[C@@H](CC(=O)O)C(=O)N[C@@H](Cc1c[nH]c2ccccc12)C(=O)N[C@H](C(=O)N[C@@H](CS)C(=O)N[C@@H](Cc1ccc(O)cc1)C(=O)N[C@@H](Cc1c[nH]c2ccccc12)C(=O)N[C@@H](Cc1cnc[nH]1)C(=O)N[C@H](C(=O)N[C@@H](Cc1ccccc1)C(=O)NCC(=O)O)[C@@H](C)O)C(C)C`, for which the IC50 is more than 1 µM.

In the case of `CC(C)[C@H](NC(=O)[C@H](Cc1c[nH]c2ccccc12)NC(=O)[C@H](CC(=O)O)NC(=O)CN(C)C(=O)[C@@H](N)CS)C(=O)N[C@@H](CS)C(=O)N[C@@H](Cc1ccc(O)cc1)C(=O)N[C@@H](Cc1cccc2ccccc12)C(=O)N[C@@H](Cc1cnc[nH]1)C(=O)N[C@H](C(=O)N[C@@H](Cc1ccccc1)C(=O)O)[C@@H](C)O`, the IC50 is more than 1 µM.

`CC(=O)N[C@@H](CS)C(=O)N[C@@H](CCCNC(=N)N)C(=O)N[C@H](C(=O)N[C@@H](Cc1c[nH]c2ccccc12)C(=O)N[C@@H](CCC(=O)O)C(=O)N[C@@H](CS)C(=O)N[C@@H](Cc1ccc(O)cc1)C(=O)N[C@@H](Cc1c[nH]c2ccccc12)C(=O)N[C@@H](Cc1cnc[nH]1)C(=O)N[C@@H](CCC(=O)O)C(=O)N[C@@H](CCC(N)=O)C(=O)N[C@@H](CO)C(N)=O)[C@@H](C)O` (Ac-CRTWECYWHEQS-NH2) yielded an IC50 of less than 0.5 µM.

Values taken from ChEMBL document CHEMBL4417631, “Oral peptide inhibitors of interleukin-23 receptor and their use to treat inflammatory bowel diseases” (2017).
